Laboratory results as given in ChEMBL document CHEMBL1153778, “Contact-active microbicidal gold surfaces using immobilization of quaternary ammonium thiol derivatives” (2009).

Columns and labels:
Format in all cases: functional
[1] = tested on: Staphylococcus aureus; assay: Antimicrobial activity against Staphylococcus aureus ATCC 6538 on gold coated surface assessed as log reduction of colony forming units after 24 hrs
[2] = tested on: Staphylococcus aureus; assay: Antimicrobial activity against Staphylococcus aureus ATCC 6538 on gold coated surface assessed as bactericidal efficiency after 4 hrs
[3] = tested on: Staphylococcus aureus; assay: Antimicrobial activity against Staphylococcus aureus ATCC 6538 on gold coated surface assessed as log reduction of colony forming units after 4 hrs

Structure (SMILES)	Activity [1]	Activity [2]	Activity [3]
CCCCCCCCCC[N+](C)(C)CCCNC(=O)CCCCCCCCCCS.[Cl-]	0	67	0.39
C[N+](C)(C)CCCCCCCCCCCS.[Cl-]	0	30	0.14
CCCCCCCCCC[N+](C)(C)CCCCCCCCCCCS.[Cl-]	0	51	0.31
CCCCCCCCCCCCCC[N+](C)(C)CCCNC(=O)CCCCCCCCCCS.[Cl-]	0	30	0.14
C[N+](C)(CCCNC(=O)CCCCCCCCCCS)Cc1ccccc1.[Cl-]	0	0	0
CCCCCCCCCCCC[N+](C)(C)CCCCCCCCCCCS.[Cl-]	0	51	0.31
CCCCCCCCCCCCCC[N+](C)(C)CCCCCCCCCCCS.[Cl-]	0	0	0
C[N+](C)(C)CCCNC(=O)CCCCCCCCCCS.[Cl-]	0	30	0.14
CCCCCCCCCCCC[N+](C)(C)CCCNC(=O)CCCCCCCCCCS.[Cl-]	0	51	0.31
C[N+](C)(CCCCCCCCCCCS)Cc1ccccc1.[Cl-]	0	30	0.14
